According to patent US20150038545A1, “HYDROXYPHENYL PYRROLE COMPOUNDS CONTAINING AN HYDROXAMIC ACID AS HDAC INHIBITORS AND MEDICINAL APPLICATIONS THEREOF” (UNIVERSIDAD DEL PAÍS VASCO, priority 2011, published 2015):

Biological target: T1, Human HDAC6 (Homo sapiens, UniProt Q9UBN7)
T1 construct: Full length with N-terminal GST tag, MW=159 kDa; GST (N); purchased BioMol SE-508; host or cells: Sf9 cells, baculovirus
T1 sequence (Q9UBN7 1-1215): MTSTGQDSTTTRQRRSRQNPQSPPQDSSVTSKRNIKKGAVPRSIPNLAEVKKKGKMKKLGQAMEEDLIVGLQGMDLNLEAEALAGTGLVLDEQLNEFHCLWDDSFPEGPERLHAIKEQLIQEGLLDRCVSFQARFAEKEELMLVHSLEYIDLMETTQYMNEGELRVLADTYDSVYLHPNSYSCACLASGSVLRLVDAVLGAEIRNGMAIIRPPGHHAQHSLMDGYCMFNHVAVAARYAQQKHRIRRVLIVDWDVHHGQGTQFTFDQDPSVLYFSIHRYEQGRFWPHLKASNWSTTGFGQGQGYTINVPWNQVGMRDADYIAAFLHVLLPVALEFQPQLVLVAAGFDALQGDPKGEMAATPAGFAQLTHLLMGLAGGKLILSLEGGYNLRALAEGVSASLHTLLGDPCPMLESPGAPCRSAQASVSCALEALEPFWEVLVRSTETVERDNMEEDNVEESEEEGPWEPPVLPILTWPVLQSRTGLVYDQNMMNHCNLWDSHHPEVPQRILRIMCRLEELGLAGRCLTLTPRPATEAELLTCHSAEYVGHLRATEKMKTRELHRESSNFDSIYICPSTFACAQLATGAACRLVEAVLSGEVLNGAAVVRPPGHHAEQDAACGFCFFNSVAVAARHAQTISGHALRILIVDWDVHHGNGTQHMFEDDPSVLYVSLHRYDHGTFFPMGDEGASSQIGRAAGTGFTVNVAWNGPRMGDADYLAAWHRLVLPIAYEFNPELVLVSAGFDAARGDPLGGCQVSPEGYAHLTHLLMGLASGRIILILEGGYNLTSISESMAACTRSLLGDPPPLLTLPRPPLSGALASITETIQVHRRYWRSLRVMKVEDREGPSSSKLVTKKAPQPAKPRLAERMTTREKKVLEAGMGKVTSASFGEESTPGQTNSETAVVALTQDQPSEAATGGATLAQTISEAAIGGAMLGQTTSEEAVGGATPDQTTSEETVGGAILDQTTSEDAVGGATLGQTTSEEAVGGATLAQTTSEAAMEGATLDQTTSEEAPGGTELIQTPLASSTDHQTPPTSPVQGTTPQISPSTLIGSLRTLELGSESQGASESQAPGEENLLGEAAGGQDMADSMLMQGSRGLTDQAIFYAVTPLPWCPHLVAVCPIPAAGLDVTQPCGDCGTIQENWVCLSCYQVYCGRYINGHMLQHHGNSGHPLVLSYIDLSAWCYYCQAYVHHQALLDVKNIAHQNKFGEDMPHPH
Assay: In vitro HDAC6 inhibition, fluorogenic peptide assay
Format: biochemical
Conditions: read-out: IC50 (nM) of enzyme activity HDAC6
Description: All HDAC assays were performed using acetylated AMC-labeled peptide substrate: • Substrate for isoforms HDAC1, 2, 3, 4, 5, 6, 7, 9, 10, 11 and HeLa nuclear extract assays: Acetylated fluorogenic peptide from p53 residues 379-382 (RHKKAc) (BioMol. Cat. # KI-104). • Substrate for HDAC8 assays: Acetylated fluorogenic peptide from p53 residues 379-382 (RHKAcKAc) (BioMol. Cat. # KI-178).
Enzymes: • HDAC1 assay: 75 nM Human HDAC1 (GenBank Accession No. NM_004964): Full length with C-terminal GST tag, MW=79.9 kDa, expressed by baculovirus expression system in Sf9 cells (BioMol. Cat. # SE-456). • HDAC2 assay: 5 nM Human HDAC2 (GenBank Accession No. Q92769): Full length with C-terminal His tag, MW=60 kDa, expressed by baculovirus expression system in Sf9 cells (BioMol. Cat. # SE-500). • HDAC3 assay: 2.3 nM Human HDAC3/NcoR2 (GenBank Accession No. NM_003883 for HDAC3, GenBank Accession No.NM_006312 for NcoR2): Complex of human HDAC3, full length with C-terminal His tag, MW=49.7 kDa, and human NCOR2, N-terminal GST tag, MW=39 kDa, co-expressed in baculovirus expression system (BioMol. Cat. # SE-507). • HDAC4 assay: 266 nM Human HDAC4 (GenBank Accession No. NM_006037): Amino acids 627-1085 with N-terminal GST tag, MW=75.2 kDa, expressed in baculovirus expression system (BioMol, Hamburg, Germany). • HDAC5 assay: 588 nM Human HDAC5 (GenBank Accession No. NM_001015053): Full length with Nterminal GST tag, MW=150 kDa, expressed by baculovirus expression system in Sf9 cells (BioMol, Hamburg, Germany). • HDAC6 assay: 13 nM Human HDAC6 (GenBank Accession No. BC069243): Full length with N-terminal GST tag, MW=159 kDa, expressed by baculovirus expression system in Sf9 cells (BioMol. Cat. # SE-508). • HDAC7 assay: 962 nM Human HDAC7 (GenBank Accession No. AY302468): Amino acids 518-end with N-terminal GST tag, MW=78 kDa, expressed in baculovirus expression system (BioMol, Hamburg, Germany). • HDAC8 assay: 119 nM Human HDAC8 (GenBank Accession No. NM018486): Full length, MW=42 kDa, expressed in an E. coli expression system (BioMol. Cat. # SE-145). • HDAC9 assay: 986 nM Human HDAC9 (GenBank Accession No. NM178423): Amino acids 604-1066 with C-terminal His tag, MW=50.7 kDa, expressed in baculovirus expression system (BioMol, Hamburg, Germany). • HDAC10 assay: 781 nM Human HDAC10 (GenBank Accession No. NM_032019): Amino acids 1-631 with Nterminal GST tag, MW=96 kDa, expressed by baculovirus expression system in Sf9 cells (BioMol. Cat. # SE-559). • HDAC11 assay: 781 nM Human HDAC11 (GenBank Accession No. NM_BC009676) with N-terminal GST tag, MW=66 kDa, expressed in baculovirus expression system (BioMol. Cat. # SE-560). • HeLaNuclear Extract assay: 25 ng/μl Nuclear Extract from HeLa Cells: Prepared by high salt extraction of HeLa nuclei (human cervical cancer cell line), this extract is a rich source of HDAC activity (BioMol. Cat. # KI-140).
The reactions were carried out in a 96-well microplate for fluorometry in a 50 μl reaction volume. After the deacetylation reaction, Fluor-de-Lys-Developer (BioMol Cat. # KI-105) was added to each well to digest the deacetylated substrate, thus producing the fluorescent signal. The reaction was allowed to develop for 45 minutes at 30° C. with 5% CO2; then the fluorescent signal was measured with an excitation wavelength at 360 nm and an emission wavelength at 460 nm in a microplate-reading fluorometer (GeminiXS; Molecular Devices, Sunnyvale, Calif.). […] All experiments were performed in triplicate. IC50 was calculated by fitting the experimental data to a dose-response curve. DMSO was used as negative control; Trichostatin A (Biomol Cat. # GR-309) was used as positive control inhibitor.

SMILES | IC50 [nM]
COc1ccc(-c2cc(-c3ccccc3)[nH]c2C(=O)NCCCCCC(=O)NO)cc1 [Compound A, N-[6-(hydroxyamino)-6-oxohexyl]-3-(4-methoxyphenyl)-5-phenyl-1H-pyrrole-2-carboxamide, reference compound] | 20
COc1ccc(-c2cc(-c3ccccc3)c(C(=O)NCCCCCC(=O)NO)[nH]2)cc1 [Compound B, N-[6-(hydroxyamino)-6-oxohexyl]-5-(4-methoxyphenyl)-3-phenyl-1H-pyrrole-2-carboxamide, reference compound] | 32
O=C(CCCCCNC(=O)c1[nH]c(-c2ccccc2)cc1-c1ccc(O)cc1)NO [Example 1, N-(6-(hydroxyamino)-6-oxohexyl)-3-(4-hydroxyphenyl)-5-phenyl-1H-pyrrole-2-carboxamide] | 14
O=C(CCCCCNC(=O)c1[nH]c(-c2ccc(O)cc2)cc1-c1ccccc1)NO [Example 2, N-(6-(hydroxyamino)-6-oxohexyl)-5-(4-hydroxyphenyl)-3-phenyl-1H-pyrrole-2-carboxamide] | 7.6
O=C(CCCCCNC(=O)c1[nH]c(-c2ccsc2)cc1-c1ccc(O)cc1)NO [Example 3, N-(5-(hydroxycarbamoyl)pentyl)-3-(4-hydroxyphenyl)-5-(3-thienyl)-1H-pyrrole-2-carboxamide] | 12
O=C(CCCCCNC(=O)c1[nH]c(-c2ccoc2)cc1-c1ccc(O)cc1)NO [Example 4, 5-(3-furyl)-N-(5-(Hydroxycarbamoyl)pentyl)-3-(4-hydroxy-phenyl)-1H-pyrrole-2-carboxamide] | 9.3
O=C(CCCCCNC(=O)c1[nH]c(-c2ccc(O)cc2)cc1-c1ccoc1)NO [Example 5, 3-(3-furyl)-N-(5-(hydroxycarbamoyl)pentyl)-5-(4-hydroxy-phenyl)-1H-pyrrole-2-carboxamide] | 0.6
O=C(CCCCCNC(=O)c1[nH]c(-c2ccc(O)cc2)cc1-c1ccsc1)NO [Example 6, N-(5-(hydroxycarbamoyl)pentyl)-5-(4-hydroxyphenyl)-3-(3-thienyl)-1H-pyrrole-2-carboxamide] | 1.6
